Key:
B16F10 melanoma = test: B16F10 Melanoma Syngeneic Mouse Model; assay type: in vivo; conditions: 30 mpk p.o., q.d., B16F10 allograft in C57BL/6 mice
Description: Example inhibitor 80 was tested for its ability to inhibit tumor growth in a B16F10 melanoma syngeneic mouse model. Cell line and tumor model: B16F10 melanoma cell line derived allograft model in C57BL/6 mice.
Mouse B16F10 melanoma cells were sourced from American Type Culture Collection (ATCC), USA. Cells were grown in DMEM (Invitrogen, Catalogue No. 31600-034) supplemented with 10% FBS (Invitrogen, Catalogue No. 10438-026), and 1% penicillin streptomycin (Thermo Fisher Scientific, Catalogue No. 15140-122). To establish allografts, the cells were harvested by trypsinization when they reach around 70 to 80% confluence and 0.1 million B16F10 cells were suspended in 50 μl of serum free medium and mixed at 1:1 ratio with matrigel before implanting subcutaneously into the dorsal right flank of mice using a 1 mL BD syringe attached to a 24-gauge needle.
B16F10 tumor grafts were measured after 5 days of cell inoculation once they became palpable. […]
Tumor dimensions—length (I) and breadth (b)—were measured by caliper on the day of animal randomization based on tumor volume (Day 1) and thrice weekly thereafter until study termination. Tumor volumes were calculated using the formula b^2*I*0.52 where I=length, b=breadth (Dusan Djokovic et al., BMC Cancer, 2010, 10:641). Tumor growth inhibition was calculated after normalizing the tumor volume on a given day to that on Day 1. […]

[1] = biological target: T1, ERRα ligand binding domain (ERRα-LBD) (Homo sapiens, UniProt P11474); test: ERRα AlphaScreen Assay; assay type: biochemical; conditions: disruption of binding of ERRα-LBD protein to biotin-PGC1α-3 co-activator peptide; read-out: mean pIC50 (converted)
T1 construct: made in house; host or cells: E. coli
T1 sequence (P11474 193-421 limits assumed): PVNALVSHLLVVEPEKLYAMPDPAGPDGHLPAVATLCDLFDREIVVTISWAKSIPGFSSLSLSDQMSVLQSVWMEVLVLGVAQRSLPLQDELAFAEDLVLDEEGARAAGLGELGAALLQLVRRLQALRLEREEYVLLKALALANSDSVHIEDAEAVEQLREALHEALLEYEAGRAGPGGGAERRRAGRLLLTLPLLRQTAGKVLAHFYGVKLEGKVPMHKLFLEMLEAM
Method in brief: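 E. coli-expressed 6His-SUMO-ERRα-LBD (0.81 nM) incubated with compound and donor/acceptor beads 1 h, then 2 h with 15 nM biotin-PGC1α-3 peptide (aa 202–220); room temperature, Tris pH 7.5 buffer with TCEP, 1% DMSO, triplicates. Loss of co-activator binding read by AlphaScreen; four-parameter dose-response fit.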

full length ERRα = biological target: T2, full length ERRα (Homo sapiens, UniProt P11474); test: Full Length ERRα Reporter Gene Assay; assay type: cell-based; conditions: SK-BR-3 cells, ERRα-RE luciferase reporter, overnight incubation; read-out: mean pIC50 (converted)
T2 construct: an over-expression construct coding full length ERRα; expressed in transfected cells; host or cells: SK-BR-3 cells, transient co-transfection of pLP2124 (pcDNA3.1/Hygro(+) background) and reporter pLP2175
T2 sequence (P11474 1-423): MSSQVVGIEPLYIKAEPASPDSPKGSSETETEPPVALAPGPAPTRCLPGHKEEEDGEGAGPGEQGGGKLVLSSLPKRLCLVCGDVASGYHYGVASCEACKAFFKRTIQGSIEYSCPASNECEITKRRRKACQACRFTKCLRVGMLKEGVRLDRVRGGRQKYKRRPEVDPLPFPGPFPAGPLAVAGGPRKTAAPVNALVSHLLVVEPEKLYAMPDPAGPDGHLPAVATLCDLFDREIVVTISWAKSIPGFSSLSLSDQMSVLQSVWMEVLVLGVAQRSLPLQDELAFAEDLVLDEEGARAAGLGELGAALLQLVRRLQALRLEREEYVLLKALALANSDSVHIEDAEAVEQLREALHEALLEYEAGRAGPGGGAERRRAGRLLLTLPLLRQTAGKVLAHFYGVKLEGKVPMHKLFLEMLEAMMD
From the text: A method was established to quantitatively screen the potency of compounds with inverse agonistic activity on the nuclear receptor ERRα of the human species. The assay allows intra-cellular screening of ERRα inverse agonists in SK-BR-3 cells using an over-expression construct coding full length ERRα and a reporter construct containing an ERRα Response Element (RE) and a luciferase gene for read out. The activity is expressed in logIC50 values and can be used to determine SAR of compound families or to de-select compounds.
In this assay, reporter cells are obtained by transient co-transfection of two constructs in SK-BR-3 cells using standard transfection techniques. The first construct contains a response element of the nuclear receptor ERRα (Plasmid pLP2175, Reporter construct ERRα-RE/luc2P, cloned variant of ERRα_v2_synthRE, Switchgear Genomics, Catalog Number S900089). This sequence drives the transcription of the luciferase reporter gene in response to binding of an ERRα protein encoded by the second construct (Plasmid pLP2124: full length ERRα expression construct using pcDNA3.1/Hygro(+) as background, Invitrogen Catalog Number V87020).
The day after transfection, cells were plated into 96 well plates, the test compound was added and the plates were incubated overnight. Subsequently, the firefly luciferase activity was quantified using luciferase detection reagent and luminescence readout.
Transfection is performed on pre-seeded SK-BR-3 cells in a T175 flask. One transfected T175 flask is sufficient for seeding 3 to 4 MW96 plates the next day, depending on the confluency of the transfected cells.
Two different media are used in this protocol for cell treatment: 1) Culture medium, i.e. McCoy's 5a with phenol red (BioWhittaker Supplier Number 12-688F), 10% FBS and 1× Penstrep.; and, 2) Assay medium, i.e. McCoy's 5a Medium phenol red free (HyClone Product Code SH30270.01) with 2% Charcoal Stripped FBS and 1× Penstrep. Compound dilutions are prepared in assay medium.
Cells are seeded at least 2 days in advance to allow the cells to adhere well to flask before transfection. Cells should be 50-80% confluent at the day of transfection.
SKBR3 cells were transfected with the transcriptional reporter construct pLP2175 and the ERRα expression construct pLP2124 (as described above).
68 μL of Lipofectamine LTX transfection reagent (Invitrogen Catalog Number 15338-100) was added dropwise to 8.9 ml Opti-MEM I Reduced Serum Medium (Gibco Catalog Number 51985-026) and incubated at room temperature for 5 to 20 minutes. 8.9 ml of this reagent mixture was added to 22 μg pLP2175+22 μg pLP2124 (ratio 1:1 and total volume 10 ml), and incubated at room temperature for 25 minutes.
10 minutes before adding the transfection mix to SKBR3 cells in a T175 flask, the culture medium was refreshed with 20 mL culture medium. Subsequently, the 10 mL DNA-Opti-MEM-Lipofectamine mixture was gently added to the cells, followed by overnight (16-24 hours) incubation at 37° C. and 5% CO2.
To harvest SKBR3 cells from a T175 flask, first the medium was removed. Subsequently, cells were washed with Phosphate Buffered Saline (PBS) (Lonza), after which the PBS was removed. To dissociate the cells, 2 ml of TrypLE Express (I nvitrogen) was added to the flask, followed by incubation at 37° C. for 5 minutes. The flask was tapped until cells were detached from the bottom. Cells were collected in 8 mL of culture medium (McCoy's 5a, 10% FBS, penstrep), to achieve a single cell suspension. After cell count, cells were spun down for 5 minutes at 300 g. Next cell pellets were re-suspended to 25000 cells/80 μl assay medium (McCoy's 5a phenol red free, 2% charcoal stripped FBS, penstrep).
For compound screening, the cells were harvested (as described above). 80 μL of cell suspension (25,000 cells) was plated per well into a white, flat bottom, tissue culture treated, 96 well screening plates (Greiner). […]

| SMILES | Tumor Volume (mm^3) Day 13 (B16F10 melanoma) | Tumor Growth Inhibition (%) (B16F10 melanoma; Day 13) | IC50 [1] | IC50 (full length ERRα) |
| --- | --- | --- | --- | --- |
| COc1cc(C2CC(=O)Nc3n[nH]cc32)ccc1Oc1cc(C(F)(F)F)cc(C(F)(F)F)c1 (single isomer, unassigned; (-)) [Example 80, (−)-4-{4-[3,5-bis(trifluoromethyl)phenoxy]-3-methoxyphenyl}-2H,4H,5H,6H,7H-pyrazolo[3,4-b]pyridin-6-one] | 684 ± 82 mm^3 | 64% | ≤ 10 nM |  |
| COc1cc(C2CC(=O)Nc3n[nH]cc32)ccc1Oc1ccc(Br)cc1C(C)(C)C (stereo not drawn) [Example 33, 4-[4-(4-bromo-2-tert-butylphenoxy)-3-methoxyphenyl]-2H,4H,5H,6H,7H-pyrazolo[3,4-b]pyridin-6-one] |  |  | ≤ 10 nM | ≤ 316 nM |
| COc1cc(-c2cc(=O)[nH]c3n[nH]cc23)ccc1Oc1ccc(Br)cc1C(C)(C)C [Example 70, 4-[4-(4-bromo-2-tert-butylphenoxy)-3-methoxyphenyl]-2H,6H,7H-pyrazolo[3,4-b]pyridin-6-one] |  |  | ≤ 10 nM | ≤ 316 nM |
| COc1cc(C2CC(=O)Nc3n[nH]cc32)ccc1Oc1cc(C(F)(F)F)cc(C(F)(F)F)c1 (racemic) [Example 43, 4-{4-[3,5-bis(trifluoromethyl)phenoxy]-3-methoxyphenyl}-2H,4H,5H,6H,7H-pyrazolo[3,4-b]pyridin-6-one] |  |  | 10 to 100 nM | ≤ 316 nM |
| COc1cc(C2CC(=O)Nc3n[nH]cc32)ccc1Oc1cc(C)cc(C(F)(F)F)c1 (single isomer, unassigned; (-)) [Example 84, (−)-4-{3-methoxy-4-[3-methyl-5-(trifluoromethyl)phenoxy]phenyl}-2H,4H,5H,6H,7H-pyrazolo[3,4-b]pyridin-6-one] |  |  | ≤ 10 nM | ≤ 316 nM |
| COc1cc(-c2cc(=O)[nH]c3n[nH]cc23)ccc1Oc1ccc(C)cc1C(C)(C)C [Example 69, 4-[4-(2-tert-butyl-4-methylphenoxy)-3-methoxyphenyl]-2H,6H,7H-pyrazolo[3,4-b]pyridin-6-one] |  |  | ≤ 10 nM | ≤ 316 nM |
| COc1cc(C2CC(=O)Nc3n[nH]cc32)ccc1Oc1ccccc1S(F)(F)(F)(F)F (stereo not drawn) [Example 40, 4-{3-methoxy-4-[2-(pentafluoro-λ^6-sulfanyl)phenoxy]phenyl}-2H,4H,5H,6H,7H-pyrazolo[3,4-b]pyridin-6-one] |  |  | 10 to 100 nM | ≤ 316 nM |
